From US20210161937A1, “ACTIVATION OF MITOCHONDRIAL UNCOUPLING AS A THERAPEUTIC INTERVENTION” (The Trustees of Columbia University in the City of New York, priority 2018, published 2021)
Entries after “also recorded” stand apart in the source; their conditions may differ.

What was measured:
Drosophila [1] = assay: CO2 respiration assay after mitochondrial drug feeding; format: in vivo; details: 24 hr feeding; 500 μM Oligomycin, 1 mM rotenone, 5 mM 2,4 DNP, 0.5% stearate
Procedure: Measurement of CO2 production was performed similarly to Yatsenko et al. 2014. Briefly, 10 flies were placed in a sealed pipette tip-capillary respirometer (without anesthesia) containing a small amount of soda-lime. Respirometers were placed capillary side down in dH20 containing 0.1% blue food dye in a sealed TLC chamber placed in a 25° C. incubator. Empty sealed respirometers (containing no flies) were used to subtract blue dye background migration from experimental (fly-containing) samples. Flies were tested for 2 hr between at circadian timepoints, and CO2 production rate was indirectly determined by the amount of liquid movement up the capillary per hour after background subtraction. At least 6 groups of 10 flies were used per genotype for quantification for each condition. For mitochondrial drug feeding experiments, flies were placed on food containing the following compounds for 24 hr: 500 μM Oligomycin, 1 mM rotenone, 5 mM 2,4 DNP, 0.5% stearate, or ethanol vehicle controls.

Drosophila [2] = assay: Lifespan analysis of flies fed drug-supplemented adult medium; format: in vivo; details: for median lifespan of control flies versus dose / median lifespan of per^01 null mutants versus dose: varying concentrations fed during adulthood; for lifespan of per^01 mutants / median lifespan of per^01 null mutants versus dose: per^01 null mutants; for lifespan of per^01 mutants: dietary DNP or BHT; for lifespan: wild-type (control) male flies, dietary 2,4 DNP 0.01-0.1 mM or BHT 0.1-1 mM vs ethanol vehicle
Procedure: Drosophila were reared from embryos in low-density bottles with standard medium containing 3.8% glucose, 1.9% sucrose, 3% yeast nutritional flake (Lab Scientific), 6.5% cornmeal, 0.8% agar, supplemented with 1.5% methylparaben mix (10% methylparaben in ethanol) and 1% propionic acid. Adult flies that eclosed within a 24 hour period were collected and transferred to “adult medium” containing 3.8% glucose, 1.9% sucrose, 8% cornmeal, 1% agar, and either 0.01%, 0.5%, 3%, 5%, or 10% yeast extract (Difco) supplemented with 1.5% methylparaben mix and 1% propionic acid for lifespan and biochemical analysis. All percentages given in wt/v except methylparaben mix, propionic acid given in v/v.
All drugs were supplemented into cooled (65° C.) liquid adult medium (containing 3% yeast extract) following preparation to the following final concentration(s): RU486 100μg/mL. RU486 (Cayman Chemical) dissolved in ethanol was supplemented into medium after eclosion at a final concentration of 100 μg/mL (with the exception of DaGS>UAS-Ucp4c and controls, 5 μg/mL) vehicle controls were supplemented with same volume of ethanol alone. Developmental induction was achieved by adding RU486 at concentration of 5 μg/mL, or ethanol vehicle, followed by adults being aged on standard food containing no RU486. For uncoupler feeding 2,4 DNP or BHT purchased from Sigma was dissolved in ethanol fresh at the time of making food and added in to the media, at the indicated concentrations. 2,4 DNP (0.01-0.1 mM) and BHT (0.1-1 mM).
(§1) Newly eclosed flies (˜24 hr) were collected and allowed to mate for 48 hr. Female and male flies were separated and maintained at a density of 30-35 flies per vial in a humidified, temperature-controlled (25° C.) incubator with a 12-hour light-dark cycle. For starvation analysis, flies were aged for 7 days in vials containing indicated diets and then transferred to 1% agar in a humidified, temperature-controlled incubator with 12-hour light-dark cycle at 25° C. Death was scored every 1-2 days, with live flies transferred to fresh vials every 2-3 days. Statistical significance was determined by log-rank analysis.

[3] = tested on: posterior midgut, ISCs/EBs; assay: MitoSOX intestinal staining and esg+ cell quantification in posterior midguts of Esg-GAL4>GFP flies; format: in vivo, Drosophila; details: Esg-GAL4>GFP flies fed DNP vs vehicle
Procedure: Flies were anesthetized on ice and intestines were dissected in cold Schneider's Medium (Thermo Fisher Scientific). Intestines were then incubated in 75 nM of TMRE (Thermo Fisher Scientific) in Schneider's Medium, for 10 min at room temperature. Samples were rinsed three times for 30 sec with a solution consisting of 20 nM of TMRE Schneider's Medium. For MitoSOX staining dissected intestines were immersed in 50 μM MitoSOX Red (Invitrogen) in Schneider's Medium for 5 min at room temp, then washed three times for 30 sec in Schneider's Medium. MitoSOX or TMRE samples were quickly mounted in Schneider's Medium containing 1.5 μg/mL Hoechst stain. Intestines were imaged within 20 min on a Ziess LSM800 confocal microscope. Z-stacks spanning the entire posterior midgut were taken. Quantification of TMRE or MitoSOX was performed using ImageJ in which mean fluorescent intensity values were quantified. TMRE foci were quantified using the ImageJ (Schneider et al. 2012) local maxima tool, using identical thresholding for all images. Foci number were normalized to the number of nuclei in the measured field of view. Quantification of MitoSOX output of ISCs/EBs was determined by mean intensity from individual Z-planes with regions of interest defined by esgGFP expression, cell size, and basal location within the intestinal epithelium. Mean intensity of MitoSOX fluorescence levels in all ISCs/EBs were averaged for each individual intestine. A minimum of 9 midguts were used for each genotype or drug treatment.

ISC tumors = assay: Notch-RNAi induced ISC tumor formation (Esg^ts>UAS-Notch-RNAi flies); format: in vivo, Drosophila
Procedure: as §1
Ese^ts>UAS-Notch-RNAi flies were reared at 18° C. Upon eclosion flies were collected, sexed and placed on media containing 0.05 mM 2,4 DNP, or ethanol vehicle food at 30° C. Time-points of day 0, 8, and 16 days were taken. Intestines were dissected, fixed, and stained as above pHH3 protocol, with anti-GFP (cell signaling) and 1.5 μg/mL Hoechst stain. Quantification of GFP area was performed by using the ImageJ count particle tool in the GFP channel normalized to total area of the posterior midgut that was imaged. 7-13 guts were used for each condition and timepoint.

Row | Compound | respiration (relative CO2 production) of control flies (Drosophila [1]) | respiration (relative CO2 production) of per^01 mutants (Drosophila [1]) | lifespan of per^01 mutants (Drosophila [2]) | median lifespan of per^01 null mutants versus dose (Drosophila [2]) | lifespan (Drosophila [2]) | other results
1 | CCCCCCCCCCCCCCCCCC(=O)O [stearic acid] | increased the respiration of control flies to levels similar to those of per^01 mutants | did not increase the respiration of per^01 mutants |  |  |  | 
2 | CC#C[C@]1(O)CC[C@H]2[C@@H]3CCC4=CC(=O)CCC4=C3[C@@H](c3ccc(N(C)C)cc3)C[C@@]21C [RU486, mifepristone] |  |  |  |  |  | lifespan on RU486 administration (induces constitutive overexpression of UCPs) (Drosophila [2]; RU486-inducible UCP overexpression (DaGS>UAS-Ucp4C flies)): increased lifespan
3 | CC[C@H]1/C=C/C=C/C[C@@H](C)[C@H](O)[C@@](C)(O)C(=O)[C@@H](C)[C@H](O)[C@@H](C)C(=O)[C@@H](C)[C@H](O)[C@@H](C)/C=C/C(=O)O[C@@H]2[C@H](C)[C@H](CC1)O[C@]1(CC[C@H](C)[C@H](C[C@@H](C)O)O1)[C@H]2C [oligomycin] | inhibited the CO2 output of both control and per^01 animals to a similar degree | inhibited the CO2 output of both control and per^01 animals to a similar degree |  |  |  | 
4 | C=C(C)[C@H]1Cc2c(ccc3c2O[C@@H]2COc4cc(OC)c(OC)cc4[C@@H]2C3=O)O1 [rotenone] | inhibited the CO2 output of both control and per^01 animals to a similar degree | inhibited the CO2 output of both control and per^01 animals to a similar degree |  |  |  | 
5 | Cc1cc(C(C)(C)C)c(O)c(C(C)(C)C)c1 [BHT, butylated hydroxytoluene] |  |  | did not extend the lifespan of per^01 mutants | no median lifespan increase was observed | extended the lifespan of wild-type male flies in a dose-dependent manner; also recorded: increased lifespan compared to vehicle-fed controls | median lifespan of control flies versus dose (Drosophila [2]): increased their median lifespan in a dose-dependent manner
6 | O=[N+]([O-])c1ccc(O)c([N+](=O)[O-])c1 [DNP, 2,4-dinitrophenol] | increased the respiration of control flies to levels similar to those of per^01 mutants | did not increase the respiration of per^01 mutants | did not extend the lifespan of per^01 mutants | no median lifespan increase was observed | extended the lifespan of wild-type male flies in a dose-dependent manner | median lifespan of control flies versus dose (Drosophila [2]; listed as 2,4 DNP): increased their median lifespan in a dose-dependent manner; age-related esg+ cell overproliferation (esg+ cell count) [3]: reduced; mitochondrial ROS output of ISC/EB populations (MitoSOX staining in GFP-marked ISCs/EBs) [3]: reduced; mitochondrial ROS output of the entire posterior midgut (MitoSOX staining) [3]: reduced; age-related esg+ cell overproliferation (esg+ cell count) ([3]; listed as 2,4 DNP): fewer esg+cells; mitochondrial ROS output of ISC/EB populations (MitoSOX staining in GFP-marked ISCs/EBs) ([3]; listed as 2,4 DNP): decreased MitoSOX staining specifically in ISCs/EBs; mitochondrial ROS output of the entire posterior midgut (MitoSOX staining) ([3]; listed as 2,4 DNP): decreased Mitosox staining of the entire posterior midgut; progression of ISC tumors (GFP+ area in the midgut) (ISC tumors; 0.05 mM 2,4 DNP in media vs ethanol vehicle, 30° C., day 0, 8, 16): slowed the progression of ISC tumors; also recorded: delayed tumor formation; lifespan of flies with Notch-induced tumor formation (ISC tumors; dietary 2,4 DNP vs vehicle): extended the shortened lifespan of these animals; also recorded: extended lifespans
